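Protocol summary: plate cells (96-well), add compound at 5 concentrations, incubate 48 h, interpolate endpoints linearly. Here, GI50 denotes the concentration required for 50% inhibition of growth.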 Active and inactive are the calls of the source. Rule as the data show it: active = GI50 up to about 1.1 µM and inactive = higher.
Key:
Assay in all cases: NCI anticancer screen, dose series, 48 h
[1] = system: A549
[2] = system: EKVX
[3] = system: HCC 2998
[4] = system: HCT-15
[5] = system: HL-60
[6] = system: HOP-92
[7] = system: IGROV-1
[8] = system: LOX IMVI
[9] = system: MDA-MB-435
[10] = system: NCI-H226
[11] = system: NCI-H522
[12] = system: RXF 393
[13] = system: SF-295
[14] = system: SK-OV-3
[15] = system: SW-620
[16] = system: SR

| Structure (SMILES) | GI50 [1] | GI50 [2] | GI50 [3] | GI50 [4] [µM] | GI50 [5] | GI50 [6] | GI50 [7] | GI50 [8] | GI50 [9] | GI50 [10] | GI50 [11] | GI50 [12] | GI50 [13] | GI50 [14] | GI50 [15] | GI50 [16] |
| --- | --- | --- | --- | --- | --- | --- | --- | --- | --- | --- | --- | --- | --- | --- | --- | --- |
| COC(=O)C(C(=O)C(=O)NC1Nc2ccc(C)cc2S1)c1nc2ccc(Cl)cc2nc1O (configuration not stated) | > 100 µM (inactive) | 60.1 µM (inactive) | > 100 µM (inactive) | > 100 | > 100 µM (inactive) | 82.4 µM (inactive) | 40.6 µM (inactive) | > 100 µM (inactive) | > 100 µM (inactive) | > 100 µM (inactive) | > 100 µM (inactive) | > 100 µM (inactive) | > 100 µM (inactive) | > 100 µM (inactive) | > 100 µM (inactive) |  |
| COC(=O)[C@@H](N1C(=O)c2ccccc2C1=O)C1(C)CC(Cl)=NO1 (some centres not stated) | 86.1 µM (inactive) | 38.8 µM (inactive) | > 100 µM (inactive) | > 100 |  |  | 17.7 µM (inactive) |  | > 100 µM (inactive) | 38.8 µM (inactive) | 35 µM (inactive) | 41.5 µM (inactive) | 28.1 µM (inactive) | 33.8 µM (inactive) | > 100 µM (inactive) |  |
| Cc1ccc(NC(=O)/C=C/c2ccccc2)c(C)c1 | > 100 µM (inactive) | 26.6 µM (inactive) | > 100 µM (inactive) | > 100 | > 100 µM (inactive) |  |  | > 100 µM (inactive) | > 100 µM (inactive) | 13.9 µM (inactive) | 30 µM (inactive) |  |  | 43.2 µM (inactive) | > 100 µM (inactive) | > 100 µM (inactive) |
| [O-]c1c[n+](CC[n+]2cc([O-])on2)no1 | > 100 µM (inactive) | > 100 µM (inactive) | > 100 µM (inactive) | > 100 | > 100 µM (inactive) | > 100 µM (inactive) | > 100 µM (inactive) | > 100 µM (inactive) | > 100 µM (inactive) |  | > 100 µM (inactive) | > 100 µM (inactive) | > 100 µM (inactive) | > 100 µM (inactive) | > 100 µM (inactive) | > 100 µM (inactive) |
| O=C(Cn1cc(F)c(=O)[nH]c1=O)C12CC3CC(CC(C3)C1)C2 | > 100 µM (inactive) | > 100 µM (inactive) | > 100 µM (inactive) | > 100 | > 100 µM (inactive) |  | > 100 µM (inactive) | > 100 µM (inactive) | > 100 µM (inactive) |  | > 100 µM (inactive) | > 100 µM (inactive) | > 100 µM (inactive) | > 100 µM (inactive) | > 100 µM (inactive) | > 100 µM (inactive) |
| COc1ccc(N2C(=O)C3ON(C(C(N)=O)c4ccccc4)C(c4cc5ccccc5c5ccccc45)C3C2=O)cc1 (configuration not stated) | > 50 µM (inactive) | 24.5 µM (inactive) |  | 20.4 | 9.27 µM (inactive) | 47.1 µM (inactive) | 18.4 µM (inactive) | 24.2 µM (inactive) | 18.4 µM (inactive) | 26.3 µM (inactive) | 29.5 µM (inactive) | 21.8 µM (inactive) | > 50 µM (inactive) | > 50 µM (inactive) | 26.9 µM (inactive) | 16.1 µM (inactive) |
| O=[N+]([O-])c1cccc2nccc(NCCCO)c12 | 16.5 µM (inactive) | 6.79 µM (inactive) | 13.2 µM (inactive) | 8.11 | 11.6 µM (inactive) |  | 13.3 µM (inactive) | 12.9 µM (inactive) | 11.7 µM (inactive) | 23 µM (inactive) | 6 µM (inactive) | 6.17 µM (inactive) | 15.5 µM (inactive) | 23.3 µM (inactive) | 13.3 µM (inactive) | 7.66 µM (inactive) |
| CCOC(=O)c1csc(-c2nc(CCNC(=O)c3ccccc3)sc2Cl)n1 | > 100 µM (inactive) | > 100 µM (inactive) | > 100 µM (inactive) | 51.3 | 41.5 µM (inactive) | 5.74 µM (inactive) | > 100 µM (inactive) |  | 62.7 µM (inactive) | > 100 µM (inactive) |  | > 100 µM (inactive) | > 100 µM (inactive) | > 100 µM (inactive) | > 100 µM (inactive) | 37.1 µM (inactive) |
| c1cc(Sc2nc(Sc3ccncc3)nc(Sc3ccncc3)n2)ccn1 | > 100 µM (inactive) | > 100 µM (inactive) | > 100 µM (inactive) | > 100 | > 100 µM (inactive) | > 100 µM (inactive) | > 100 µM (inactive) | > 100 µM (inactive) | > 100 µM (inactive) | > 100 µM (inactive) | > 100 µM (inactive) | > 100 µM (inactive) | > 100 µM (inactive) | > 100 µM (inactive) | > 100 µM (inactive) |  |
| COC(=O)C1=C(OC(=O)/C(=C/c2ccc(Cl)cc2)c2ccc(Cl)cc2)C(C(=O)OC)[C@]2(O)[C@@H](C(=O)OC)[C@H]1C[C@@H](c1ccccc1)[C@@H]2C(=O)OC (some centres not stated) | 52.8 µM (inactive) | 70.5 µM (inactive) |  | > 100 | > 100 µM (inactive) |  | 38.8 µM (inactive) | > 100 µM (inactive) | > 100 µM (inactive) | > 100 µM (inactive) | 3.85 µM (inactive) | > 100 µM (inactive) | 29.6 µM (inactive) | 64 µM (inactive) | > 100 µM (inactive) |  |
| O=C1Nc2ccccc2S/C1=C\c1cccc(C(F)(F)F)c1 | > 100 µM (inactive) | > 100 µM (inactive) |  | > 100 | 5.01 µM (inactive) | 60.1 µM (inactive) | > 100 µM (inactive) | > 100 µM (inactive) | > 100 µM (inactive) | > 100 µM (inactive) | > 100 µM (inactive) | > 100 µM (inactive) | > 100 µM (inactive) | > 100 µM (inactive) | > 100 µM (inactive) | > 100 µM (inactive) |
| O=C(N/N=C(COc1ccccc1Cl)\N=C\c1cccnc1)c1ccncc1 | > 100 µM (inactive) | > 100 µM (inactive) | > 100 µM (inactive) | > 100 | > 100 µM (inactive) |  | > 100 µM (inactive) | > 100 µM (inactive) | > 100 µM (inactive) | > 100 µM (inactive) | > 100 µM (inactive) | > 100 µM (inactive) | > 100 µM (inactive) | > 100 µM (inactive) | > 100 µM (inactive) |  |
| COc1ccc(-c2nc3ccccc3c(=S)n2OC(C)=O)cc1 | 2.5 µM (inactive) | 6.46 µM (inactive) | > 25 µM (inactive) | 0.755 | 1.04 µM (active) | > 25 µM (inactive) | 0.143 µM (active) | 4.92 µM (inactive) | 7.1 µM (inactive) | 7.85 µM (inactive) |  | 8.75 µM (inactive) | 2.25 µM (inactive) | 5.71 µM (inactive) | 4.63 µM (inactive) |  |
| O=C(N/C(=C\c1ccccc1)c1nc2ccccc2c(=O)o1)c1ccccc1 | > 100 µM (inactive) | 57.3 µM (inactive) | > 100 µM (inactive) | 97.1 | > 100 µM (inactive) |  | 31.4 µM (inactive) | 27.3 µM (inactive) | 23.6 µM (inactive) | > 67.6 µM (inactive) | 38.9 µM (inactive) | > 62.5 µM (inactive) | 36.2 µM (inactive) | 59.2 µM (inactive) | > 88.3 µM (inactive) | > 100 µM (inactive) |
| N#Cc1c2c(c(N)oc1=O)C(c1ccccc1)CC(=O)N2 (configuration not stated) | > 100 µM (inactive) | > 100 µM (inactive) | > 100 µM (inactive) | > 100 | > 100 µM (inactive) | > 100 µM (inactive) | > 100 µM (inactive) | > 100 µM (inactive) | > 100 µM (inactive) | > 100 µM (inactive) | > 100 µM (inactive) | > 100 µM (inactive) | > 100 µM (inactive) | > 100 µM (inactive) | > 100 µM (inactive) |  |
| O=C1C=CC[C@H]2O[C@@H](COC(=O)Cc3ccccc3)C[C@H]2O1 | 27.1 µM (inactive) | 29.5 µM (inactive) |  | 18.4 | 16.5 µM (inactive) | 28.1 µM (inactive) | 20 µM (inactive) |  | 40.5 µM (inactive) | 35.4 µM (inactive) |  |  | 30.4 µM (inactive) | > 100 µM (inactive) | 24 µM (inactive) | 32 µM (inactive) |
| CSCCCCCCCCCCOc1ccc(C=C2C(=C(C#N)C#N)c3ccccc3C2=C(C#N)C#N)cc1 |  | 18.1 µM (inactive) |  | 23.1 | 0.0962 µM (active) | 11.7 µM (inactive) | 17.3 µM (inactive) | 23.5 µM (inactive) | 16.7 µM (inactive) | 30.4 µM (inactive) | 19.5 µM (inactive) | 17.3 µM (inactive) | 17.2 µM (inactive) | 17.6 µM (inactive) | 17.8 µM (inactive) | 15 µM (inactive) |
| CC(C)c1ccc2c(c1)C=C1OC(=O)[C@]3(C)CCC[C@@]2(C)C13 (some centres not stated) | > 100 µM (inactive) | > 100 µM (inactive) | > 100 µM (inactive) | > 100 | 44.2 µM (inactive) |  | > 100 µM (inactive) |  | > 100 µM (inactive) | > 100 µM (inactive) | 73.5 µM (inactive) | > 100 µM (inactive) | > 100 µM (inactive) | > 100 µM (inactive) | > 100 µM (inactive) | > 100 µM (inactive) |
| COc1ccc2cc(C(C)C(=O)N3C(=O)OCC3(C)C)ccc2c1 (configuration not stated) | > 100 µM (inactive) | > 100 µM (inactive) | > 100 µM (inactive) | > 100 | > 100 µM (inactive) | > 100 µM (inactive) | > 100 µM (inactive) | > 100 µM (inactive) | > 100 µM (inactive) | > 100 µM (inactive) |  |  | > 100 µM (inactive) | > 100 µM (inactive) | > 100 µM (inactive) | > 100 µM (inactive) |
